Common to all, as to format: in vivo
The test system of experiment [1] is Heliothis virescens. As to the kind of experiment: Heliothis virescens (tobacco budworm) egg/larval test on artificial diet. Conditions: 96 h.
In experiment [2] the test system is Plutella xylostella. The experiment is described as follows: Plutella xylostella (diamond back moth) larval test on artificial diet. Conditions: 144 h.
In experiment [3] the test system is Diabrotica balteata. The experiment is described as follows: Diabrotica balteata (corn root worm) larval test on artificial diet. Conditions: 120 h, read-out: Control/% Diabrotica balteata Corn rootworm.
A further experiment deals with Spodoptera littoralis. As to the kind of experiment: Spodoptera littoralis (Egyptian cotton leafworm) leaf disc test. Conditions: foliar, 72 h, application rate 200 ppm, cotton leaf discs, L1 larvae, mortality, feeding behavior, growth regulation 3 DAT. The source says:
Spodoptera littoralis (Egyptian Cotton Leafworm): Cotton leaf discs were placed on agar in a 24-well microtiter plate and sprayed with test solutions at an application rate of 200 ppm. After drying, the leaf discs were infested with 5 L1 larvae. The samples were checked for mortality, feeding behavior, and growth regulation 3 days after treatment (DAT).

Experiment [4] deals with Heliothis virescens. As to the kind of experiment: Heliothis virescens (tobacco budworm) egg/larval test on artificial diet. Conditions: 96 h, application rate 200 ppm (concentration in well 18 ppm), eggs on artificial diet, 4 days. The procedure: Eggs (0-24 h old) were placed in 24-well microtiter plate on artificial diet and treated with test solutions at an application rate of 200 ppm (concentration in well 18 ppm) by pipetting. After an incubation period of 4 days, samples were checked for egg mortality, larval mortality, and growth regulation.

Experiment [5] has as its system Plutella xylostella. As to the kind of experiment: Plutella xylostella (diamond back moth) larval test on artificial diet. Conditions: 144 h, application rate 200 ppm (concentration in well 18 ppm), L2 larvae on artificial diet, 6 days. The method, then:
24-well microtiter plate (MTP) with artificial diet was treated with test solutions at an application rate of 200 ppm (concentration in well 18 ppm) by pipetting. After drying, the MTP's were infested with L2 larvae (7-12 per well). After an incubation period of 6 days, samples were checked for larval mortality and growth regulation.

The subject of experiment [6] is Diabrotica balteata. The experiment is described as follows: Diabrotica balteata (corn root worm) larval test on artificial diet. Conditions: 120 h, application rate 200 ppm (concentration in well 18 ppm), L2 larvae on artificial diet, 5 days. The procedure: Diabrotica balteata (Corn Root Worm): A 24-well microtiter plate (MTP) with artificial diet was treated with test solutions at an application rate of 200 ppm (concentration in well 18 ppm) by pipetting. After drying, the MTP's were infested with L2 larvae (6-10 per well). After an incubation period of 5 days, samples were checked for larval mortality and growth regulation.

The next experiment concerns Myzus persicae. The experiment is described as follows: Myzus persicae (green peach aphid), systemic test. Conditions: 144 h, application rate 12.5 ppm, roots of pea seedlings in test solution, 6 days. The source says:
Myzus persicae (Green peach aphid), systemic test: Roots of pea seedlings, infested with an aphid population of mixed ages, are placed directly in the test solutions at an application rate of 12.5 ppm. 6 days after introduction, samples are checked for mortality and special effects on the plant. The following compounds gave at least 80% control of Myzus persicae: […]

Another experiment concerns Thrips tabaci. As to the kind of experiment: Thrips tabaci (onion thrips) leaf disc test. Conditions: foliar, 168 h, application rate 200 ppm, sunflower leaf discs, 7 days. The procedure:
Sunflower leaf discs were placed on agar in a 24-well microtiter plate and sprayed with test solutions at an application rate of 200 ppm. After drying, the leaf discs were infested with a thrips population of mixed ages. After an incubation period of 7 days, samples were checked for mortality.

The test system of a further experiment is Tetranychus urticae. As to the kind of experiment: Tetranychus urticae (two-spotted spider mite) leaf disc test. Conditions: foliar, 192 h, application rate 200 ppm, bean leaf discs, 8 days. The text has this: Bean leaf discs on agar in 24-well microtiter plates were sprayed with test solutions at an application rate of 200 ppm. After drying, the leaf discs are infested with mite populations of mixed ages. 8 days later, discs are checked for egg mortality, larval mortality, and adult mortality.

Results on twelve molecules are retold here after patent publication US8895587B2, “Insecticidal compounds based on arylthioacetamide derivatives” (Syngenta Participations AG, priority 2011, dated 2014).

For `Cc1cc(C2=NOC(c3cc(Cl)cc(Cl)c3)(C(F)(F)F)C2)ccc1[S+](C)[O-]` (centres unmarked), the pest or weed control at 0.8 ppm in the experiment on Heliothis virescens [1] (application rate 0.8 ppm) and in the experiment with Plutella xylostella [2] (application rate 0.8 ppm) was 0% in each case. Besides, the pest or weed control at 3 ppm in the experiment on Heliothis virescens [1] (application rate 3 ppm), in the experiment with Plutella xylostella [2] (application rate 3 ppm) and with Diabrotica balteata [3] (application rate 3 ppm) was 0% each time. Further, in the experiment on Diabrotica balteata [3] (application rate 12 ppm), the pest or weed control at 12 ppm turned out to be 0%.
On to `O=C(CS(=O)(=O)c1ccc(C2=NO[C@@](c3cc(Cl)c(Cl)c(Cl)c3)(C(F)(F)F)C2)cc1Cl)NCC(F)(F)F` [Compound D3, 2-[2-chloro-4-[(5S)-5-(3,4,5-trichlorophenyl)-5-(trifluoromethyl)-4H-isoxazol-3-yl]phenyl]sulfonyl-N-(2,2,2-trifluoroethyl)acetamide], for which the pest or weed control at 200 ppm in the experiment on Spodoptera littoralis, in the experiment with Heliothis virescens [4], in the experiment with Plutella xylostella [5], with Diabrotica balteata [6], with Thrips tabaci and in the experiment on Tetranychus urticae was at least 80% throughout. In the experiment with Myzus persicae, this molecule yielded a pest or weed control at 12.5 ppm of at least 80%.
`N#CC1(NC(=O)CSc2ccc(C3=NOC(c4cc(Cl)cc(Cl)c4)(C(F)(F)F)C3)cc2Cl)CC1` (centres unmarked) [Compound A60, 2-[2-chloro-4-[5-(3,5-dichlorophenyl)-5-(trifluoromethyl)-4H-isoxazol-3-yl]phenyl]sulfanyl-N-(1-cyanocyclopropyl)acetamide]: the pest or weed control at 200 ppm in the experiment on Spodoptera littoralis, with Heliothis virescens [4], with Plutella xylostella [5], with Diabrotica balteata [6], with Thrips tabaci and in the experiment with Tetranychus urticae was at least 80% throughout. The molecule further displayed a pest or weed control at 12.5 ppm in the experiment with Myzus persicae of at least 80%.
With `N#CC1(NC(=O)C[S+]([O-])c2ccc(C3=NOC(c4cc(Cl)cc(Cl)c4)(C(F)(F)F)C3)cc2Cl)CC1` (centres unmarked) [Compound A56, 2-[2-chloro-4-[5-(3,5-dichlorophenyl)-5-(trifluoromethyl)-4H-isoxazol-3-yl]phenyl]sulfinyl-N-(1-cyanocyclopropyl)acetamide], the pest or weed control at 200 ppm in the experiment with Spodoptera littoralis, in the experiment on Heliothis virescens [4], in the experiment with Plutella xylostella [5], in the experiment on Diabrotica balteata [6], in the experiment with Thrips tabaci and with Tetranychus urticae was at least 80% each time. The pest or weed control at 12.5 ppm with Myzus persicae is at least 80%.
Consider `O=C(C[S+]([O-])c1ccc(C2=NOC(c3cc(Cl)cc(Cl)c3)(C(F)(F)F)C2)cc1Br)NCC(F)(F)F` (centres unmarked) [Compound A52, 2-{2-Bromo-4-[5-(3,5-dichloro-phenyl)-5-trifluoromethyl-4,5-dihydro-isoxazol-3-yl]-benzenesulfinyl}-N-(2,2,2-trifluoro-ethyl)-acetamide], for which the pest or weed control at 200 ppm in the experiment on Spodoptera littoralis, in the experiment with Heliothis virescens [4], in the experiment on Plutella xylostella [5], in the experiment on Diabrotica balteata [6], with Thrips tabaci and in the experiment with Tetranychus urticae was at least 80% throughout. Also, the pest or weed control at 12.5 ppm in the experiment with Myzus persicae was at least 80%.
For `O=C(CSc1ccc(C2=NOC(c3cc(Cl)cc(Cl)c3)(C(F)(F)F)C2)cc1Cl)NCC(F)(F)F` (centres unmarked) [Compound A5, 2-{2-Chloro-4-[5-(3,5-Dichloro-phenyl)-5-trifluoromethyl-4,5-dihydro-isoxazol-3-yl]-phenylsulfanyl}-N-(2,2,2-trifluoro-ethyl)-acetamide], the pest or weed control at 200 ppm in the experiment on Spodoptera littoralis, with Heliothis virescens [4], in the experiment with Plutella xylostella [5], in the experiment on Diabrotica balteata [6], in the experiment with Thrips tabaci and with Tetranychus urticae was at least 80% each time. The pest or weed control at 12.5 ppm with Myzus persicae was at least 80%.
As to `O=C(C[S+]([O-])c1ccc(C2=NO[C@@](c3cc(Cl)cc(Cl)c3)(C(F)(F)F)C2)cc1F)NCC(F)(F)F` (stereo partly drawn) [Compound C64, 2-[4-[(5S)-5-(3,5-dichlorophenyl)-5-(trifluoromethyl)-4H-isoxazol-3-yl]-2-fluoro-phenyl]sulfinyl-N-(2,2,2-trifluoroethyl)acetamide], the pest or weed control at 200 ppm in the experiment with Spodoptera littoralis, with Heliothis virescens [4], in the experiment with Plutella xylostella [5], with Diabrotica balteata [6], in the experiment with Thrips tabaci and in the experiment with Tetranychus urticae was at least 80% in each case. Besides, the pest or weed control at 12.5 ppm in the experiment with Myzus persicae was at least 80%.
On to `O=C(CSc1ccc(C2=NO[C@@](c3cc(Cl)cc(Cl)c3)(C(F)(F)F)C2)c2ccccc12)NCC(F)(F)F` [Compound G2, 2-[[4-[5-(S)-(3,5-dichlorophenyl)-5-(trifluoromethyl)-4H-isoxazol-3-yl]-1-naphthyl]sulfanyl]-N-(2,2,2-trifluoroethyl)acetamide], for which the pest or weed control at 200 ppm with Spodoptera littoralis, with Heliothis virescens [4], in the experiment on Plutella xylostella [5], in the experiment with Diabrotica balteata [6], with Thrips tabaci and with Tetranychus urticae was at least 80% each time. The same molecule came in with a pest or weed control at 12.5 ppm with Myzus persicae of at least 80%.
Regarding `O=C(C[S+]([O-])c1ccc(C2=NCC(c3cc(Cl)cc(Cl)c3)(C(F)(F)F)C2)cc1Cl)NCC(F)(F)F` (centres unmarked) [Compound B2, 2-{2-Chloro-4-[4-(3,5-dichloro-phenyl)-4-trifluoromethyl-4,5-dihydro-3H-pyrrol-2-yl]-benzenesulfinyl}-N-(2,2,2-trifluoro-ethyl)-acetamide], the pest or weed control at 200 ppm with Spodoptera littoralis, with Heliothis virescens [4], in the experiment with Plutella xylostella [5], in the experiment with Diabrotica balteata [6], in the experiment on Thrips tabaci and with Tetranychus urticae was at least 80% in each case. In the experiment on Myzus persicae, this molecule gave a pest or weed control at 12.5 ppm of at least 80%.
`O=C(CSc1ccc(C2=NOC(c3cc(Cl)cc(Cl)c3)(C(F)(F)F)C2)cc1Br)NCC(F)(F)F` (centres unmarked) [Compound A29, 2-{2-bromo-4-[5-(3,5-dichloro-phenyl)-5-trifluoromethyl-4,5-dihydro-isoxazol-3-yl]-phenylsulfanyl}-N-(2,2,2-trifluoro-ethyl)-acetamide]: the pest or weed control at 200 ppm in the experiment on Spodoptera littoralis, in the experiment on Heliothis virescens [4], with Plutella xylostella [5], in the experiment with Diabrotica balteata [6], in the experiment on Thrips tabaci and with Tetranychus urticae was at least 80% in each case. In addition, the pest or weed control at 12.5 ppm in the experiment on Myzus persicae is at least 80%.
For the molecule `O=C(CSc1ccc(C2=NCC(c3cc(Cl)cc(Cl)c3)(C(F)(F)F)C2)cc1Cl)NCC(F)(F)F` (centres unmarked) [Compound B1, 2-{2-Chloro-4-[4-(3,5-dichloro-phenyl)-4-trifluoromethyl-4,5-dihydro-3H-pyrrol-2-yl]-phenylsulfanyl}-N-(2,2,2-trifluoro-ethyl)-acetamide], the pest or weed control at 200 ppm in the experiment with Spodoptera littoralis, in the experiment on Heliothis virescens [4], in the experiment with Plutella xylostella [5], in the experiment on Diabrotica balteata [6], with Thrips tabaci and with Tetranychus urticae was at least 80% in each case. The pest or weed control at 12.5 ppm in the experiment on Myzus persicae is at least 80%.
In the case of `O=C(CS(=O)(=O)c1ccc(C2=NOC(c3cc(Cl)cc(Cl)c3)(C(F)(F)F)C2)cc1Br)NCC(F)(F)F` (centres unmarked) [Compound A53, 2-{2-Bromo-4-[5-(3,5-dichloro-phenyl)-5-trifluoromethyl-4,5-dihydro-isoxazol-3-yl]-benzenesulfonyl}-N-(2,2,2-trifluoro-ethyl)-acetamide], the pest or weed control at 200 ppm in the experiment on Spodoptera littoralis, with Heliothis virescens [4], with Plutella xylostella [5], with Diabrotica balteata [6], with Thrips tabaci and in the experiment on Tetranychus urticae was at least 80% each time. The molecule further had a pest or weed control at 12.5 ppm in the experiment with Myzus persicae of at least 80%.
